Tested on: HL60 cells
Experiment: Anti-cancer activity test, MTT, HL60 cells
Type: cell-based
Details: Homo sapiens, HL-60, culturing for 72 hours
Protocol: Cell culture medium: Roswell medium RPMI-1640 (+L-glutamine) was added with 10% fetal bovine serum, with 100 units penicillin and 100 μg streptomycin per ml.
Cell culture conditions: 5% CO2, 95% humidity, cultured at 37° C. constant temperature.
2. Cell Inoculation, Drugs Dosing and Culture.
Logarithmic growth phase HL-60, human chronic myeloid leukemia cells (K562), human esophageal squamous cell carcinoma cells (KYSE510), human large cell lung cancer cells (H460) were inoculated into 96-well cell culture plates, 2×10^4 cells per well. Different concentrations of active compounds (dissolved in dimethyl sulfoxide (DMSO) stock solution) were added, so that the final concentration of DMSO was 0.2%, and the control group was DMSO. Each group was repeated three times.
After culturing for 72 hours, 20 µL of thiazolyl blue (MTT) (5 mg/ml, ready for use, dissolved in 1×PBS for cell culture) was added to each well, and incubated at 37° C. for 3 hours.
The 96-well cell culture plates were centrifuged at 1000 rpm for 10 minutes. The supernatant was discarded; 200 μL of DMSO was added to each well and the plate was shaken for 5 minutes.
The absorbance of each well was detected at 570 nm wavelength with a microplate reader, and the IC50 of the compounds was calculated.

With `CC(C)C[C@H](NC(=O)CNC(=O)OCC1c2ccccc2-c2ccccc21)B(O)O` [Compound A84] the IC50 was under 100 nM.

For `CC(C)C[C@H](NC(=O)[C@H](CC(C)C)NC(=O)Cn1c2ccc(Cl)cc2c2cc(Cl)ccc21)B1O[C@@H]2C[C@@H]3C[C@@H](C3(C)C)[C@]2(C)O1` [Compound A59], the IC50 was 500 to 2000 nM.

`CC(C)C[C@H](NC(=O)[C@H](CC(C)C)NC(=O)Cn1c2ccccc2c2ccc(Cl)cc21)B(O)O` [Compound A99] was tested, and the IC50 was 100 to 500 nM.

`CC(C)C[C@H](NC(=O)[C@H](Cc1cn(C(=O)OC(C)(C)C)c2ccccc12)NC(=O)C1CC2C=CC1C2)B1O[C@@H]2C[C@@H]3C[C@@H](C3(C)C)[C@]2(C)O1` (stereo partly drawn) [Compound A27] was tested, and the IC50 was under 100 nM.

`CC(C)C[C@H](NC(=O)[C@H](Cc1c[nH]c2ccccc12)NC(=O)c1ccc2cc(N)ccc2c1)B(O)O` [Compound A88] was tested, and the IC50 was under 100 nM.

`CC(C)C[C@H](NC(=O)[C@H](Cc1c[nH]c2ccccc12)NC(=O)c1ccc2ncccc2c1)B(O)O` [Compound A74] was tested, and the IC50 was under 100 nM.

`CC(C)C[C@H](NC(=O)[C@H](CC(C)C)NC(=O)Cn1c2ccccc2c2ncccc21)B(O)O` [Compound A104] showed an IC50 of 100 to 500 nM.

`CC(C)C[C@H](NC(=O)[C@H](CC(=O)NC(c1ccccc1)(c1ccccc1)c1ccccc1)NC(=O)OCc1ccccc1)B1O[C@@H]2C[C@@H]3C[C@@H](C3(C)C)[C@]2(C)O1` [Compound A20] gave an IC50 of under 100 nM.

Work on `COC(=O)C[C@H](NC(=O)CC1c2ccccc2-c2ccccc21)C(=O)N[C@@H](CC(C)C)B1O[C@@H]2C[C@@H]3C[C@@H](C3(C)C)[C@]2(C)O1` [Compound A47] yielded an IC50 of under 100 nM.

`CC(C)C[C@H](NC(=O)[C@H](CC(=O)NC(c1ccccc1)(c1ccccc1)c1ccccc1)NC(=O)OCC1c2ccccc2-c2ccccc21)B(O)O` [Compound A89] was tested, and the IC50 was 100 to 500 nM.

With `CC(C)C[C@H](NC(=O)[C@H](CC(C)C)NC(=O)CN(c1ccccc1)c1ccccc1)B(O)O` [Compound A93] the IC50 was 500 to 2000 nM.

With `CC(C)C[C@H](NC(=O)[C@H](Cc1ccccc1)NC(=O)OCC1c2ccccc2-c2ccccc21)B1O[C@@H]2C[C@@H]3C[C@@H](C3(C)C)[C@]2(C)O1` [Compound A15] the IC50 was under 100 nM.

Compound `CC(C)C[C@H](NC(=O)[C@H](CC(C)C)NC(=O)OCC1c2ccccc2-c2ccccc21)B(O)O` [Compound A65] has an IC50 of under 100 nM.

In the case of `CC(C)C[C@H](NC(=O)[C@H](CC(C)C)NC(=O)Cn1c2cc(Cl)ccc2c2ccc(Cl)cc21)B(O)O` [Compound A100], the IC50 is reported as 500 to 2000 nM.

`CC(C)C[C@H](NC(=O)[C@H](CC(N)=O)NC(=O)CC1c2ccccc2-c2ccccc21)B1O[C@@H]2C[C@@H]3C[C@@H](C3(C)C)[C@]2(C)O1` [Compound A38] showed an IC50 of 100 to 500 nM.

In the case of `CC(C)C[C@H](NC(=O)[C@H](CC(C)C)NC(=O)Cn1c2ccccc2c2ncccc21)B1O[C@@H]2C[C@@H]3C[C@@H](C3(C)C)[C@]2(C)O1` [Compound A63], the IC50 is reported as 100 to 500 nM.

With `COC(=O)CC[C@H](NC(=O)OCC1c2ccccc2-c2ccccc21)C(=O)N[C@@H](CC(C)C)B1O[C@@H]2C[C@@H]3C[C@@H](C3(C)C)[C@]2(C)O1` [Compound A14] the IC50 was under 100 nM.

`CC(C)C[C@H](NC(=O)[C@H](CC(C)C)NC(=O)Cn1c2ccccc2c2ccncc21)B1O[C@@H]2C[C@@H]3C[C@@H](C3(C)C)[C@]2(C)O1` [Compound A39] showed an IC50 of 500 to 2000 nM.

In the case of `CC(C)C[C@H](NC(=O)OCC1c2ccccc2-c2ccccc21)C(=O)N1CCC[C@H]1B(O)O` [Compound A82], the IC50 is reported as 2000 to 10000 nM.

In the case of `CC(C)C[C@H](NC(=O)[C@H](CC(C)C)NC(=O)Cn1c2ccccc2c2cc(F)ccc21)B1O[C@@H]2C[C@@H]3C[C@@H](C3(C)C)[C@]2(C)O1` [Compound A60], the IC50 is reported as 500 to 2000 nM.

`CC(C)C[C@H](NC(=O)[C@H](CC(C)C)NC(=O)Cn1c2ncccc2c2cccnc21)B1O[C@@H]2C[C@@H]3C[C@@H](C3(C)C)[C@]2(C)O1` [Compound A64] was tested, and the IC50 was 500 to 2000 nM.

For `CC(C)C[C@H](NC(=O)[C@H](Cc1c[nH]c2ccccc12)NC(=O)NC1CCCC1)B1O[C@@H]2C[C@@H]3C[C@@H](C3(C)C)[C@]2(C)O1` [Compound A44], the IC50 was under 100 nM.

In the case of `CC(C)C[C@H](NC(=O)[C@H](Cc1c[nH]c2ccccc12)NC(=O)OC1CCCC1)B1O[C@@H]2C[C@@H]3C[C@@H](C3(C)C)[C@]2(C)O1` [Compound A45], the IC50 is reported as under 100 nM.

Work on `CC(C)C[C@H](NC(=O)[C@H](CC(C)C)NC(=O)Cn1c2ccccc2c2ccc(Br)cc21)B1O[C@@H]2C[C@@H]3C[C@@H](C3(C)C)[C@]2(C)O1` [Compound A62] yielded an IC50 of 100 to 500 nM.

`CC(C)C[C@H](NC(=O)[C@H](Cc1c[nH]c2ccccc12)NC(=O)c1cnc2ccccc2c1)B1O[C@@H]2C[C@@H]3C[C@@H](C3(C)C)[C@]2(C)O1` [Compound A36] showed an IC50 of under 100 nM.

For `CC(C)C[C@H](NC(=O)[C@H](Cc1c[nH]c2ccccc12)NC(=O)CC12CC3CC(CC(C3)C1)C2)B1O[C@@H]2C[C@@H]3C[C@@H](C3(C)C)[C@]2(C)O1` [Compound A25], the IC50 was under 100 nM.

Work on `CC(C)C[C@H](NC(=O)[C@H](CC(C)C)N(C)C(=O)OCC1c2ccccc2-c2ccccc21)B(O)O` [Compound A83] yielded an IC50 of 2000 to 10000 nM.

With `COC(=O)C[C@H](NC(=O)OCC1c2ccccc2-c2ccccc21)C(=O)N[C@@H](CC(C)C)B1O[C@@H]2C[C@@H]3C[C@@H](C3(C)C)[C@]2(C)O1` [Compound A16] the IC50 was under 100 nM.

Work on `CC(C)C[C@H](NC(=O)[C@H](Cc1c[nH]c2ccccc12)NC(=O)c1ccc2ccccc2c1)B(O)O` [Compound A76] yielded an IC50 of under 100 nM.

In the case of `CC(C)C[C@H](NC(=O)[C@H](CC(C)C)NC(=O)Cn1c2ccc(Br)cc2c2cc(Br)ccc21)B1O[C@@H]2C[C@@H]3C[C@@H](C3(C)C)[C@]2(C)O1` [Compound A40], the IC50 is reported as 500 to 2000 nM.

In the case of `CC(C)C[C@H](NC(=O)[C@H](CC(C)C)NC(=O)Cn1c2ccccc2c2ccc(Br)cc21)B(O)O` [Compound A102], the IC50 is reported as 100 to 500 nM.

Work on `CC(C)C[C@H](NC(=O)[C@H](Cc1c[nH]c2ccccc12)NC(=O)c1cnc2ccccc2c1)B(O)O` [Compound A75] yielded an IC50 of under 100 nM.

For `COc1ccc2c3ccccc3n(CC(=O)N[C@@H](CC(C)C)C(=O)N[C@@H](CC(C)C)B(O)O)c2c1` [Compound A95], the IC50 was 500 to 2000 nM.

`CC(C)C[C@H](NC(=O)[C@H](C)NC(=O)OCC1c2ccccc2-c2ccccc21)B1O[C@@H]2C[C@@H]3C[C@@H](C3(C)C)[C@]2(C)O1` [Compound A12] gave an IC50 of under 100 nM.

In the case of `CC(C)C[C@H](NC(=O)[C@H](Cc1c[nH]c2ccccc12)NC(=O)OCc1ccccc1)B1O[C@@H]2C[C@@H]3C[C@@H](C3(C)C)[C@]2(C)O1` [Compound A21], the IC50 is reported as under 100 nM.

For `CC(C)C[C@H](NC(=O)[C@H](CCc1ccccc1)NC(=O)OCC1c2ccccc2-c2ccccc21)B1O[C@@H]2C[C@@H]3C[C@@H](C3(C)C)[C@]2(C)O1` [Compound A17], the IC50 was under 100 nM.

In the case of `CC(C)C[C@H](NC(=O)CNC(=O)OCC1c2ccccc2-c2ccccc21)B1O[C@@H]2C[C@@H]3C[C@@H](C3(C)C)[C@]2(C)O1` [Compound A51], the IC50 is reported as under 100 nM.

`CC(C)C[C@H](NC(=O)[C@H](CC(C)C)NC(=O)Cn1c2ccccc2c2ccc(OCc3ccccc3)cc21)B(O)O` [Compound A105] gave an IC50 of 100 to 500 nM.

For `CC(C)C[C@H](NC(=O)[C@H](Cc1c[nH]c2ccccc12)NC(=O)c1ccc2ccccc2c1)B1O[C@@H]2C[C@@H]3C[C@@H](C3(C)C)[C@]2(C)O1` [Compound A37], the IC50 was under 100 nM.

Compound `CC(C)C[C@H](NC(=O)[C@H](CC(N)=O)NC(=O)CC1c2ccccc2-c2ccccc21)B(O)O` [Compound A81] has an IC50 of 100 to 500 nM.

`CC(C)C[C@H](NC(=O)[C@H](CC(C)C)NC(=O)Cn1c2ccccc2c2ccncc21)B(O)O` [Compound A92] was tested, and the IC50 was 100 to 500 nM.

Work on `C[C@H](NC(=O)[C@H](CCCCNC(=O)OC(C)(C)C)NC(=O)OCC1c2ccccc2-c2ccccc21)B1O[C@@H]2C[C@@H]3C[C@@H](C3(C)C)[C@]2(C)O1` [Compound A23] yielded an IC50 of 100 to 500 nM.

`CC(C)C[C@H](NC(=O)[C@H](Cc1cn(C(=O)OC(C)(C)C)c2ccccc12)NC(=O)OCC1c2ccccc2-c2ccccc21)B1O[C@@H]2C[C@@H]3C[C@@H](C3(C)C)[C@]2(C)O1` [Compound A8] showed an IC50 of under 100 nM.

For `CC(C)C[C@H](NC(=O)[C@H](CC(C)C)NC(=O)Cn1c2ccccc2c2ccc(F)cc21)B(O)O` [Compound A103], the IC50 was 500 to 2000 nM.

With `CC(C)C[C@H](NC(=O)[C@H](Cc1c[nH]c2ccccc12)NC(=O)c1ccncc1)B1O[C@@H]2C[C@@H]3C[C@@H](C3(C)C)[C@]2(C)O1` [Compound A33] the IC50 was 500 to 2000 nM.
